Reference: patent publication US20230015532A1, “PHARMACEUTICAL COMPOSITION, FOR PREVENTING OR TREATING FIBROSIS, COMPRISING PHEOPHORBIDE COMPOUND AS ACTIVE INGREDIENT” (PAEAN BIOTECHNOLOGY INC., priority 2019, published 2023)

Columns and labels:
[1] = test system: collagen 1A in CCD8-Lu cells; assay: Anti-fibrotic activity by immunocytochemistry staining (Experimental Example 3.2); format: cell-based, human; conditions: 6 hours after 5 ng/ml TGF-β
Description: A cell-based assay experiment was performed to analyze the anti-fibrotic activity of pheophorbide a obtained in Preparation Example 2, using immunocytochemistry staining method.
CCD8-Lu cells, which are human lung-derived fibroblasts, were cultured in the DMEM medium containing 10% FBS. About 2×10^4 cells were then inoculated into a 24 well plate and cultured for 24 hours, and subjected to the deficient condition in the DMEM medium from which FBS was removed for about 24 hours.
After 24 hours, following the treatment with TGF-β at a concentration of 5 ng/ml, fibrosis of cells was induced for 6 hours. After 6 hours, the cells were treated with pheophorbide a obtained in Preparation Example 2 and further cultured for 18 hours (FIG. 2). Then, the negative control group was treated with nothing, the positive control group was treated with TGF-β alone at a concentration of 5 ng/ml, and the experimental groups were treated with TGF-β at a concentration of 5 ng/ml and 6 hours later, with pheophorbide a at each concentration of 0.15 μM, 0.3 μM, 0.6 μM, 1.2 μM, 2.5 μM and 5 μM.
Immunohistochemistry analysis for each sample was performed as follows. […] The nuclei were stained using DAPI (4,6-diamidino-2-phenylindole) and the difference in the intensity of fluorescence was analyzed using a fluorescence microscope.

[2] = test system: α-SMA, collagen 1A and fibronectin in CCD8-Lu cells; assay: Comparison of anti-fibrotic activity by Western blotting (Experimental Example 4.2); format: cell-based, human; conditions: 2.5 μM and 5 μM, 6 hours after 5 ng/ml TGF-β, 18 hours
Description: A cell-based analysis experiment was performed to analyze the anti-fibrotic activity of pheophorbide a in comparison with nintedanib and pirfenidone, which were previously approved as a therapeutic agent for pulmonary fibrosis, using Western blotting assay.
CCD8-Lu cells, which are human lung-derived fibroblasts, were cultured in the DMEM medium containing 10% FBS. About 2×10^5 cells were then inoculated into a 6 well plate, cultured for 24 hours, and subjected to the deficient condition in the DMEM medium from which FBS was removed for about 24 hours.
24 hours later, following the treatment with TGF-β at a concentration of 5 ng/ml, fibrosis of cells was induced for 6 hours. Then, the cells were treated with pheophorbide a obtained in Preparation Example 2 or the therapeutic agent for pulmonary fibrosis and further cultured for 18 hours. Then, the negative control group was treated with nothing, the positive control group was treated with TGF-β alone at a concentration of 5 ng/ml, and the experimental groups were treated with TGF-β at a concentration of 5 ng/ml and 6 hours later, with pheophorbide a at a concentration of […] or 5 μM, nintedanib at a concentration of 1 μM, and pirfenidone at a concentration of 1 mM, respectively.
After 18 hours, the culture medium was removed and the cells were washed twice by adding a PBS buffer solution, and 100 μl of RIPA buffer solution (150 mM NaCl, 1% NP-40, 0.5% Deoxycholic acid, 0.1% SDS, 50 mM Tris pH 7.5) containing a protease inhibitor was added thereto directly. 10 minutes later, the cells were recovered using a scraper and transferred to a microtube and centrifuged at about 12,000×g for 10 minutes.
The separated supernatant was obtained and transferred to a new microtube and then the protein was quantified using a bicinchoninic acid assay (BCA assay) protein quantitative kit. Each sample with the same amount of protein was subjected to electrophoresis, and then Western blotting was performed. […]

[3] = test system: Smad protein activity in Balb/c3T3 cells; assay: Smad-binding luciferase reporter assay of TGF-β signaling; format: cell-based; conditions: 0.06-5 μM together with 5 ng/ml TGF-β, 20 hours
Description: A vector was prepared in which a gene obtained by repeating eight times the nucleotide sequence (5′-[…]-3′ SEQ ID NO: 1) to which the Smad gene can bind was linked to a gene encoding luciferase as a reporter gene. The above vector was transfected into Balb/c3T3 cells together with a vector in which the RSV promoter gene was linked to a gene encoding beta-galactosidase. After 6 hours, the negative control group was treated with nothing, the positive control group was treated with TGF-β at a concentration of 5 ng/ml, and the experimental groups were treated with pheophorbide a obtained in Preparation Example 2 at each concentration of 0.06 μM, 0.12 μM, 0.25 μM, 0.5 μM, 1 μM, and 5 μM, together with 5 ng/ml of TGF-β.
The cells were then cultured in 5% CO2 incubator at 37° C. for 20 hours, and then luciferase analysis was performed.

## pheophorbide a
[1]; 0.15-5 μM, fluorescence intensity
  increased expression of collagen 1A induced by TGF-β: largely inhibited
[1]; concentration of 2.5 μM or more
  inhibitory effect on the increased expression of collagen 1A induced by TGF-β: most excellent inhibitory effect
[2]
  expression of the α-SMA, collagen 1A, and fibronectin induced by TGF-β: remarkably inhibited
[3]
  activity of Smad protein increased by TGF-β (luciferase): decreased by pheophorbide a in a concentration-dependent manner
